From patent US11787817B2, “Albofungin and its derivatives specifically recognize HIV-1 LTR-III G-quadruplex” (The Hong Kong University of Science and Technology, priority 2021, dated 2023)
Entries after “also recorded” stand apart in the source; their conditions may differ.

Experiments:
[1] = Solubility in the solvent system of the NMR titration; format: physicochemical; conditions: in solution / solvent system at the test concentration
Description: (§1) To verify whether or not the compounds interact with G4 DNA, we performed NMR titration experiments by running one-dimensional (1D) ^1H NMR spectra at 25° C. All compounds were dissolved in isotope-labeled d6-DMSO (from Sigma-Aldrich) at about 50 mM concentration, working as stock solutions. To avoid chemical shift changes of G4 DNA resulted from d6-DMSO addition, 10 μL d6-DMSO was added into 500 μL of 0.1 mM G4 DNA solution in the NMR buffer (20 mM potassium phosphate buffer and 70 mM KCl, pH 7.0, 10% D2O) and then a 1D ^1H-NMR spectrum was recorded as a reference. During NMR titration experiments, each compound was added into G4 DNA solution, the maximal volume of 10 μL of each compound in d6-DMSO solution was thought as a final data point.

HIV-1 LTR III G4 = assay: 1D 1H-NMR titration of HIV-1 LTR III G4 with compounds; format: binding; conditions: for binding affinity to LTR III G4 compared with albofungin / interaction / binding with LTR III G4: NMR titration; for interaction / binding with LTR III G4: result in words
Description: (§2) The single DNA nucleotides were purchased from Integrated DNA Technologies (IDT). The DNA sample at 100 μM (single strands) was then re-annealed by heating to 95° C. for 15 min, followed by slow cooling to room temperature overnight in an annealing buffer of 70 mM KCl and 20 mM potassium phosphate (pH 7.0). The final NMR samples contained 0.1 mM […] in 20 mM potassium phosphate buffer (pH 7.0) and 70 mM KCl.
as §1

HIV-1 U3 RNA G4 = assay: 1D 1H-NMR titration of HIV-1 U3 RNA G4; format: binding; conditions: ratio 1:0.5, 1:1, 1:3 and 1:5
Description: as §2
as §1, with “point. […]” for “point.”

LTR-III G4 = assay: CD spectroscopy of LTR-III G4 with compound; parameters: species or system HIV-1; conditions: increasing compound concentration ratio, 25° C., 220-320 nm
Description: Circular dichroism (CD) spectra were recorded on Chirascan CD spectrometer at 25° C. from 220 nm to 320 nm under liquid mode; a 1 mm path-length quartz cuvette was used in the test.
Except for NMR titration and X-ray diffraction; Circular Dichroic (CD) spectroscopy is another frequently used method for G4 studies because it is very sensitive to observing slight changes in DNA conformation. (28) Due to its sensitivity, easy manipulation of studied samples, and relatively cheap, CD spectroscopy is regarded as a crucial complementary method in G4 studies; meanwhile, LTR-III G4's structure has only been resolved using NMR elucidation in K^+ solution, a typical hybrid conformation; and different G4 conformation has distinct CD spectra. So CD test was conducted to see if 477-albo will change the conformation of LTR-III G4.

[2] = system: DNA and RNA G4s of LTR-III; conditions: literature; cited from earlier work
Epstein-Barr viruses = conditions: literature (15); cited from earlier work
human telomeric G4s = conditions: literature (32); cited from earlier work
HIV-1 LTR IV G4 = assay: 1D 1H-NMR titration of HIV-1 LTR IV G4; format: binding; conditions: ratio 1:0, 1:3 and 1:6; even at 1:6
Description: as §2, §1
(§3) Since not only LTR III can form noncanonical G4, LTR II and LTR IV can also form mutually exclusive G4 structures (24). […]

[3] = system: LTR III G4 / hnRNP A2 interaction; assay: 1D 1H-NMR titration of LTR III G4/albofungin complex with RRM1,2 domain of hnRNP A2; format: binding; conditions: G4:albofungin 1:3; G4:albofungin:hnRNP A2 1:3:2
Chain of RRM1,2 domain of hnRNP A2 (P22626 21-191): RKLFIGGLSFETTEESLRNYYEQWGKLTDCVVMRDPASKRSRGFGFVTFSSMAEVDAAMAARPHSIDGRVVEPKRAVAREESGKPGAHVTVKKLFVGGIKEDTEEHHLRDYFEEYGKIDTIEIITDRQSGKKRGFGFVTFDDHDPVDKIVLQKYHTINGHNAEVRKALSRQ
Description: as §1
LTR G4 region is under control of two nuclear proteins: nucleolin, which upon binding increases LTR G4 stability and thus silences transcription (26); the human ribonucleoprotein (hnRNP) A2/B1, which can unfold the LTR G4 efficiently and thus enhances HIV-1 transcription (27). To sum up, G4 binding proteins perform like a switch in the determination of G4's conformation to control viral transcription modulation. Therefore, the RRM domain of human ribonucleoprotein (hnRNP A2) was expressed and purified, and the NMR titration of LTR III G4 with the RRM domain of hnRNP A2 was performed. […]

[4] = system: RRM1,2 domain of hnRNP A2; assay: 1H-15N HSQC titration of RRM1,2 domain of hnRNP A2 with compound; format: binding, human; conditions: titrated at 1:10
Description: The coding sequence of the RRM domain of hnRNP A2 was inserted into the expression vector pET-28a(+) (Novagen). The protein was expressed in Escherichia coli BL21(DE3) at 37° C. for 5 h. Cell lysates were subject to affinity purification with the nickel-nitrilotriacetic acid resin (Qiagen) followed by the cleavage of the hexahistidine tag with the P3C enzyme. The resulting protein was further purified on a Superdex 75 column (GE Healthcare). For the NMR studies, the samples uniformly labeled with ^15N isotopes were expressed and purified as described above, except that the cells were grown in an M9 medium containing [^15N] ammonium chloride (Cambridge Isotopes) and D-glucose.
The titration experiments were performed by recording a series of 2D ^15N-HSQC spectra on uniformly ^15N-labeled RRM domain (˜0.1 mM) in the presence of different amounts of DNA ranging from 0 to 0.5 mM at 25° C. The protein sample and the stock solutions of DNA were all prepared in 20 mM potassium phosphate buffer and 70 mM KCl, pH 7.0, 10% D2O.
All compounds were dissolved in isotope-labeled d6-DMSO (from Sigma-Aldrich) at about 50 mM concentration, working as stock solutions. […]

[5] = system: human telomeric variant htel21_T18 G4; assay: 1D 1H-NMR titration of human telomeric htel21_T18 G-quadruplex; format: binding; conditions: concentration ratio 1:5
Description: as §2, §1
The LTR sequence and other G-rich DNA or RNA strands can form polymorphic G4s. For example, a chair-type conformation is adopted by a human telomeric variant, htel21_T18 (d[(GGGTTA)2GGGTTTGGG]) (SEQ ID NO: 1) (25). […]

HIV-1 LTR II G4 = assay: 1D 1H-NMR titration of HIV-1 LTR II G4; format: binding; conditions: ratio 1:0, 1:3 and 1:6; even at 1:6
Description: as §2, §1, §3

| Molecule | binding affinity to LTR III G4 compared with albofungin (HIV-1 LTR III G4) | interaction / binding with LTR III G4 (HIV-1 LTR III G4) | further results |
| --- | --- | --- | --- |
| COc1c2c(c(O)c3c(=O)c4c(oc13)[C@H](O)CC[C@@H]4O)-c1c(cc3cc(C)[nH]c(=O)c3c1O)CC2 [477-albo] | much weaker than albofungin | specific bind with LTR-III DNA G4; also recorded: bind to LTR III G4 | solubility [1]: better solubility; new imino shifts indicating conformation change of LTR III G4 (HIV-1 LTR III G4; concentration ratio increased to 1:3, between 13 to 14 ppm and 9.5 to 10.5 ppm): several strange shifts; trend of chemical shift changes of LTR III G4 imino region on titration (HIV-1 LTR III G4; ratio 1:0 to 1:8): clear trend of chemical shifts changes; binding to U3 RNA G4 (imino region of 1D 1H-NMR spectra) (HIV-1 U3 RNA G4): not U3 RNA G4; also recorded: did not change; conformation change of LTR-III G4 in CD spectra (LTR-III G4): noticeable conformation changes from a typical hybrid form into parallel form |
| COc1c2c(c(O)c3c(=O)c4c(oc13)[C@H](O)CC[C@@H]4O)-c1c(cc3cc(C)n(N)c(=O)c3c1O)CC2 [492-albo] | much weaker than albofungin | bind to LTR III G4 |  |
| CO[C@@H]1CC[C@H](O)c2c1oc1c3c4c(c(O)c1c2=O)-c1c(cc2cc(C)[nH]c(=O)c2c1O)C[C@H]4OCO3 [505-albo] | much weaker than albofungin | bind to LTR III G4 |  |
| Cc1cc2cc3c(c(O)c2c(=O)n1N)-c1c2c(c4oc5c(c(=O)c4c1O)[C@@H](O)[C@@H](O)CC5)OCO[C@@H]2C3 [506-1-albo] | much weaker than albofungin | bind to LTR III G4 |  |
| Cc1cc2cc3c(c(O)c2c(=O)n1N)-c1c2c(c4oc5c(c(=O)c4c1O)[C@@H](O)CC[C@H]5O)OCO[C@@H]2C3 [506-2-albo] | much weaker than albofungin | bind to LTR III G4 |  |
| CO[C@@H]1CC[C@H](O)c2c1oc1c3c4c(c(O)c1c2=O)-c1c(cc2cc(C)n(C)c(=O)c2c1O)C[C@H]4OCO3 [519-albo] | much weaker than albofungin | bind to LTR III G4 |  |
| CO[C@@H]1CC[C@H](O)c2c1oc1c3c4c(c(O)c1c2=O)-c1c(cc2cc(C)n(NC(C)=O)c(=O)c2c1O)C[C@H]4OCO3 [562-albo] | much weaker than albofungin | bind to LTR III G4 |  |
| CN(C)c1ccc(Nc2c3ccc(NC(=O)CCN4CCCC4)cc3nc3cc(NC(=O)CCN4CCCC4)ccc23)cc1 [BRACO-19] |  |  | binding to DNA and RNA G4s of LTR-III [2]: binds both DNA and RNA G4s of LTR-III; activity against Epstein-Barr viruses (Epstein-Barr viruses): active against; activity against human telomeric G4s (human telomeric G4s): active against |
| CO[C@@H]1CC[C@H](O)c2c1oc1c3c4c(c(O)c1c2=O)-c1c(cc2c(Cl)c(C)n(N)c(=O)c2c1O)C[C@H]4OCO3 [chloroalbofungin] |  | poor binding affinity |  |
| albofungin |  | potent interaction | chemical shift changes of LTR IV G4 1D 1H NMR spectra (HIV-1 LTR IV G4): no significant chemical shift changes; changes in imino region of LTR III G4/albofungin complex on adding RRM1,2 domain of hnRNP A2 [3]: no changes in the profile of the imino region; solubility [1]: poor solubility; chemical shift changes in the imino region of the 1D 1H-NMR spectrum of LTR III G4 (HIV-1 LTR III G4; G4:compound concentration ratio 1:0.5, 25° C.): significant chemical shift changes; binding to the RRM domain of hnRNP A2 [4]: did not bind; chemical shift changes of htel21_T18 1D 1H NMR spectra [5]: no chemical shift changes; chemical shift changes of LTR II G4 1D 1H NMR spectra (HIV-1 LTR II G4): no significant chemical shift changes |
